Results as given in publication PMC9228270, “Design, Synthesis, In Silico Studies and Inhibitory Activity towards Bcr-Abl, BTK and FLT3-ITD of New 2,6,9-Trisubstituted Purine Derivatives as Potential Agents for the Treatment of Leukaemia” (Pharmaceutics, 2022).
Values joined by “and” are separate entries in the source; they are usually repeats but may differ in a detail not shown here. Equal entries are not always repeated. Where two headings read alike, the source gives them in different places.

Experiments:
[1] = biological target: Bcr-Abl1 (Homo sapiens, UniProt P00519); assay: Recombinant kinase radioassay, Abl; format: biochemical; settings: ATP 1 µM, at least three independent experiments, range 0.01–100 µM
Experimental: (§1) Recombinant kinase inhibition was measured using standard radioassay. Bcr-Abl1 and Cdk-2/cyclin E kinases were produced in-house, FLT3-ITD and BTK were purchased from ProQinase. The kinases were assayed with suitable substrates (500 µM peptide […] for Abl, 1 mg/mL histone H1 for Cdk-2, 100 µM poly (Glu:Tyr; 4:1)) in the presence of ATP (1 µM for Bcr-Abl, 15 µM for Cdk-2 and BTK), 0.05 µCi [γ-^33P]ATP and the test compound in reaction buffer (60 mM HEPES-NaOH, pH 7.5, 3 mM MgCl2, 3 mM MnCl2, 3 µM Na orthovanadate, 1.2 mM DTT, 2.5 µg/50 µL PEG20.000). The reactions were stopped by adding 3% aq. H3PO4. P-81 phosphocellulose (Whatman) was used to separate phosphorylated substrates. Kinase activity was quantified using a FLA-7000 digital image analyser.

[2] = biological target: T1, BTK (Homo sapiens, UniProt Q06187); assay: Recombinant kinase radioassay, BTK; format: biochemical
T1 construct: purchased ProQinase
Experimental: as §1

[3] = biological target: T2, FLT3-ITD (Homo sapiens, UniProt P36888, ITD); assay: Recombinant kinase radioassay, FLT3-ITD; format: biochemical
T2 sequence (P36888 27-993): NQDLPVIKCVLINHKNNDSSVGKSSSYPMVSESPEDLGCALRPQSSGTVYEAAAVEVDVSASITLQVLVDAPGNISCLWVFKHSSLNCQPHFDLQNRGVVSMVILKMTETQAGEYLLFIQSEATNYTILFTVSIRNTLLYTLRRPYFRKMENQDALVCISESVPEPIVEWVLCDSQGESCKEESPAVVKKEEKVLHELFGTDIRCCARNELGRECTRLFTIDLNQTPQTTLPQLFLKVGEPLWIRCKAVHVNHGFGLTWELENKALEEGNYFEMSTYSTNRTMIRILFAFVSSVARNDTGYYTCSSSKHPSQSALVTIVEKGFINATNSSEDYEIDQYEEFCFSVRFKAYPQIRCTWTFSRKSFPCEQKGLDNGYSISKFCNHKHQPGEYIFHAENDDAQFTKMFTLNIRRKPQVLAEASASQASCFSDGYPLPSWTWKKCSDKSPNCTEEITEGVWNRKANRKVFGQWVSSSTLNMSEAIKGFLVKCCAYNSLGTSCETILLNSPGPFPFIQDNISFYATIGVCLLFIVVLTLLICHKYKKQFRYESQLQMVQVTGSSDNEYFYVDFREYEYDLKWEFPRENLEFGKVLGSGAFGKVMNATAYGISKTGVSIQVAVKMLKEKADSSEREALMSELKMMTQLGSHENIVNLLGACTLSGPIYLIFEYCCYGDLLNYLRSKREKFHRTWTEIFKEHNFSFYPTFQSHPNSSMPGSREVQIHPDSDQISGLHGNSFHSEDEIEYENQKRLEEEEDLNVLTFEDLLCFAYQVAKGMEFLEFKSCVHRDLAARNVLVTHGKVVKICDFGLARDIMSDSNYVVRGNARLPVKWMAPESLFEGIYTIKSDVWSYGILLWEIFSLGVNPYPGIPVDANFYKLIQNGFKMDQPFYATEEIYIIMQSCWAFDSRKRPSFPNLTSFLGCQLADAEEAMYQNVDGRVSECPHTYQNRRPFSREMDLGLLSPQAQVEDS
Experimental: as §1

[4] = biological target: T3, Cdk-2/cyclin E (Homo sapiens, UniProt P24941); assay: Recombinant kinase radioassay, Cdk-2/cyclin E; format: biochemical; settings: ATP 15 µM, at least three independent experiments, range 0.01–100 µM
T3 construct: made in house
Experimental: as §1

[5] = tested on: K562; assay: Cytotoxicity assay (resazurin), K562; format: cell-based; settings: Homo sapiens, 72 h, three independent experiments, range 0.1 to 25 µM
Experimental: (§2) Cytotoxicity assays for the purines were quantified using the resazurin method, a dye to measure redox reactions occurring in the mitochondria of live cells. The cells were treated by tested compounds (in triplicate, six different doses) for 72 h.

[6] = tested on: HL-60; assay: Cytotoxicity assay (resazurin), HL-60; format: cell-based; settings: Homo sapiens, 72 h, three independent experiments, range 0.1 to 25 µM
Experimental: as §2

[7] = tested on: MV4-11; assay: Cytotoxicity assay (resazurin), MV4-11; format: cell-based; settings: Homo sapiens, 72 h, three independent experiments, range 0.1 to 25 µM
Experimental: as §2

[8] = tested on: Ramos; assay: Cytotoxicity assay (resazurin), Ramos; format: cell-based; settings: Homo sapiens, 72 h, three independent experiments, range 0.1 to 25 µM
Experimental: as §2

[9] = tested on: CEM; assay: Cytotoxicity assay (resazurin), CEM; format: cell-based; settings: Homo sapiens, CCRF-CEM, 72 h, three independent experiments, range 0.1 to 25 µM
Experimental: as §2

[10] = tested on: BTK signalling in Ramos cells; assay: Immunoblotting of BTK signalling in anti-IgM-stimulated Ramos; format: cell-based; settings: immunoglobulin M-activated Ramos cells, 4 h, dose-dependent
Experimental: Protein changes in the treated cells were analysed using immunoblotting. Briefly, cell lysates were separated on SDS-polyacrylamide gels and electroblotted onto nitrocellulose membranes. After blocking, overnight incubation with specific primary antibodies and incubation with peroxidase-conjugated secondary antibodies, the peroxidase activity was detected with Super-Signal West Pico reagents (Thermo Scientific, Waltham, MA, USA) using a CCD camera LAS-4000 (Fujifilm). The following specific antibodies were purchased from Cell Signalling: anti-FLT3 (clone 8F2), anti-phospho-FLT3 Y589/591 (clone 30D4), anti-STAT5 (clone D2O6Y), anti-phospho-STAT5 Y694, anti-ERK1/2, anti-phospho-ERK1/2 T202/Y204, anti-Akt (clone C67E7), anti-phospho-Akt S473 (clone D9E), anti-phospho-Bcr Y177, anti-CrkL (clone 32H4), anti-phospho-CrkL Y207, anti-BTK (clone C82B8), anti-phospho-BTK Y223, anti-PLCγ2, anti-phospho-PLCγ2 Y1217, and anti-PARP-1 (clone 46D11). Anti-α-tubulin (clone DM1A) was purchased from Sigma Aldrich.
Based on their inhibitory effects on recombinant kinases as well as cytotoxic effects in relevant cell line models, the purine derivatives 4i, 5b and 5j were selected for further experiments to confirm the expected molecular mechanism of action. The candidate compounds were tested to determine changes in signalling pathways downstream of the oncogenic kinases in cells. […]

[11] = biological target: T4, FLT3-ITD (Homo sapiens, UniProt P36888); set-up: method as in PMID 29672049; settings: cited from earlier work
T4 sequence (P36888 27-993): T2 sequence (P36888 27-993)

[12] = recombinant kinase, radioassay, ATP 15 µM, at least three independent experiments, range 0.01–100 µM, read-out: IC50 BTK
[13] = recombinant kinase, radioassay, at least three independent experiments, range 0.01–100 µM, read-out: IC50 FLT3-ITD

T1 sequence (Q06187 whole entry): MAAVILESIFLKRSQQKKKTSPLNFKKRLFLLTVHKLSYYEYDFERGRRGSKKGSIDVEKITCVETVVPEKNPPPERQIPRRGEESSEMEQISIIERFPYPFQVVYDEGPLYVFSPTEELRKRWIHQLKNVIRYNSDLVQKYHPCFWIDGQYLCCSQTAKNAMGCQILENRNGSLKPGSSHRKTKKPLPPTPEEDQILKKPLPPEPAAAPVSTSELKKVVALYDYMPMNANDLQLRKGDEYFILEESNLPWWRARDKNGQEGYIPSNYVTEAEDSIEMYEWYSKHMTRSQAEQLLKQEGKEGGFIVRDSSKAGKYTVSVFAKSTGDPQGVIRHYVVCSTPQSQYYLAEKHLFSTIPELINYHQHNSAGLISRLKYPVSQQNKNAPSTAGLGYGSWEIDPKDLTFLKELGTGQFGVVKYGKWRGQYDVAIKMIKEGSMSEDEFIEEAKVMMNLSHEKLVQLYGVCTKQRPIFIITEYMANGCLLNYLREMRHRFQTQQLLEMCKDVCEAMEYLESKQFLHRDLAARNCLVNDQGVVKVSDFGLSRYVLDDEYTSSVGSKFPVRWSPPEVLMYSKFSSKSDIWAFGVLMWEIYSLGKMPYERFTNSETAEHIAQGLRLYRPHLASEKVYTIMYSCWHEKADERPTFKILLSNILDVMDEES
Sequence of Bcr-Abl1 (P00519 27-1130): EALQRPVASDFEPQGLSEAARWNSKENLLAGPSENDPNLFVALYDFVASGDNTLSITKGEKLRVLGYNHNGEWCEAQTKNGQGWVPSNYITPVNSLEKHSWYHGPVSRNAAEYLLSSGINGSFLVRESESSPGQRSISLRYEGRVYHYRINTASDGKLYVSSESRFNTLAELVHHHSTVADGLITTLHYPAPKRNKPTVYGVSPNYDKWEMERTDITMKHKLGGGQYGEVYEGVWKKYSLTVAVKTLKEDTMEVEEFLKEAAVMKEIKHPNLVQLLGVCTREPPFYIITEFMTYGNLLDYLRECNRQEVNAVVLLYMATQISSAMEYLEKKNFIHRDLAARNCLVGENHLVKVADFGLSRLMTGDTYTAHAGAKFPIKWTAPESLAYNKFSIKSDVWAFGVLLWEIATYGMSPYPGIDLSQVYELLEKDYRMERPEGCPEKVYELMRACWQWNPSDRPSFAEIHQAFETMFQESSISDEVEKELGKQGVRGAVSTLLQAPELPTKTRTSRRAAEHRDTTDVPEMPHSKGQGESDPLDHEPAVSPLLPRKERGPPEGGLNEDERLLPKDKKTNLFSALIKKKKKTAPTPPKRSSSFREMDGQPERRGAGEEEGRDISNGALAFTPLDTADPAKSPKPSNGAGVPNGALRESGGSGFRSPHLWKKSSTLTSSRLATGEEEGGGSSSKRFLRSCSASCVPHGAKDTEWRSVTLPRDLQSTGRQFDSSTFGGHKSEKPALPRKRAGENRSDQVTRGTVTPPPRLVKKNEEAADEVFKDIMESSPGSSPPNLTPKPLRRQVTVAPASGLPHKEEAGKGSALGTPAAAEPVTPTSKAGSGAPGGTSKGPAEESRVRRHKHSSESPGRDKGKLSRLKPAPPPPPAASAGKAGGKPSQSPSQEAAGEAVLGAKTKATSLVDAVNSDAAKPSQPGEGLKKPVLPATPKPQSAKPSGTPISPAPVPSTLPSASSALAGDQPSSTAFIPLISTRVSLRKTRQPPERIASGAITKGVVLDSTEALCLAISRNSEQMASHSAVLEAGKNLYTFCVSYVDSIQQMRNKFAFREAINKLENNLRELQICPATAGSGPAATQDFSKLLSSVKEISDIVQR

## CCCCCn1cnc2c(Nc3ccccc3)nc(Nc3ccc(N4CCN(C)CC4)cc3)nc21 [Compound 5d, N^2-(4-(4-Methylpiperazin-1-yl)phenyl)-9-pentyl-N^6-phenyl-9H-purine-2,6-diamine]
[1]
  IC50: 1.23 ± 0.02 µM
[2]; [12]
  IC50: < 0.58 µM and 0.42 µM
[3]; [13]
  IC50: 0.46 µM
[4]
  IC50: 31.1 ± 2.91 µM
[5]
  GI50: 6.7 ± 2.48 µM
[6]
  GI50: 3.98 ± 1.06 µM
[7]
  GI50: 1.28 ± 0.38 µM
[8]
  GI50: 13.8 ± 3.13 µM
[9]
  GI50: 19.1 ± 3.39 µM
other
  melting point: 138.5 to 141.3 °C

## CCCCCn1cnc2c(Nc3cccc(F)c3)nc(Nc3ccc(N4CCN(C)CC4)cc3)nc21 [Compound 5e, N^6-(3-Fluorophenyl)-N^2-(4-(4-methylpiperazin-1-yl)phenyl)-9-pentyl-9H-purine-2,6-diamine]
[1]
  IC50: 0.65 ± 0.07 µM
[2]; [12]
  IC50: < 0.58 µM and 0.36 µM
[3]; [13]
  IC50: 0.5 µM
[4]
  IC50: 19 ± 8.98 µM
[5]
  GI50: 2.14 ± 0.8 µM
[6]
  GI50: 1.31 µM
[7]
  GI50: 1.31 ± 0.71 µM
[8]
  GI50: 11.6 ± 1.46 µM
[9]
  GI50: 19 ± 3.89 µM
other
  melting point: 147.1 to 149.3 °C

## CCCCCCn1cnc2c(Nc3ccccc3)nc(Nc3ccc(N4CCN(C)CC4)cc3)nc21 [Compound 5g, 9-Hexyl-N^2-(4-(4-methylpiperazin-1-yl)phenyl)-N^6-phenyl-9H-purine-2,6-diamine]
[1]
  IC50: 9.82 ± 1.87 µM
[2]; [12]
  IC50: 0.91 ± 0.02 µM
[3]; [13]
  IC50: 1.91 µM
[4]
  IC50: 27.9 ± 1.04 µM
[5]
  GI50: 15.5 ± 4.98 µM
[6]
  GI50: 6.11 ± 0.76 µM
[7]
  GI50: 4.27 ± 1.45 µM
[8]
  GI50: 22.5 ± 1.23 µM
[9]
  GI50: 34.7 ± 1.37 µM
other
  melting point: 155.8 to 160 °C

## CCCCCCn1cnc2c(Nc3cccc(F)c3)nc(Nc3ccc(N4CCN(C)CC4)cc3)nc21 [Compound 5h, N^6-(3-Fluorophenyl)-9-hexyl-N^2-(4-(4-methylpiperazin-1-yl)phenyl)-9H-purine-2,6-diamine]
[1]
  IC50: > 100 µM
[2]; [12]
  IC50: 0.32 ± 0.01 µM
[3]; [13]
  IC50: 2.31 µM
[4]
  IC50: 80.8 ± 12.5 µM
[5]
  GI50: 24.7 ± 0.41 µM
[6]
  GI50: 8.77 ± 3.84 µM
[7]
  GI50: 3.54 ± 1.53 µM
[8]
  GI50: > 25 µM
[9]
  GI50: > 25 µM
other
  melting point: 147.1 to 149.9 °C

## CCCCCCCCn1cnc2c(Nc3ccccc3)nc(Nc3ccc(N4CCN(C)CC4)cc3)nc21 [Compound 5j, N^2-(4-(4-Methylpiperazin-1-yl)phenyl)-9-octyl-N^6-phenyl-9H-purine-2,6-diamine]
[1]
  IC50: > 100 µM
[2]; [12]
  IC50: < 0.58 µM and 0.41 µM
[3]; [13]
  IC50: 20.3 µM
[4]
  IC50: 19 ± 1.55 µM
[5]
  GI50: 8.19 ± 0.06 µM
[6]
  GI50: 1.25 ± 0.11 µM
[7]
  GI50: 4.45 ± 1.48 µM
[8]
  GI50: 14.2 ± 2.61 µM
[9]
  GI50: 23.6 ± 2.01 µM
[10]
  Levels of phosphorylated BTK and downstream targets PLCγ2 and Akt: decreased
other
  melting point: 171.3 to 173.5 °C

## CCCCCCCCn1cnc2c(Nc3cccc(F)c3)nc(Nc3ccc(N4CCN(C)CC4)cc3)nc21 [Compound 5k, N^6-(3-Fluorophenyl)-N^2-(4-(4-methylpiperazin-1-yl)phenyl)-9-octyl-9H-purine-2,6-diamine]
[1]
  IC50: > 100 µM
[2]; [12]
  IC50: 0.97 ± 0.22 µM
[3]; [13]
  IC50: > 20 µM
[4]
  IC50: 25.6 ± 3.27 µM
[5]
  GI50: 10 ± 6.31 µM
[6]
  GI50: 2.16 ± 0.48 µM
[7]
  GI50: 12.4 ± 3.93 µM
[8]
  GI50: 15.7 ± 0.37 µM
[9]
  GI50: 21.3 ± 0.31 µM
other
  melting point: 181.2 to 183.6 °C

## CN1CCN(C(=O)c2ccc(Nc3nc(Nc4ccccc4)c4ncn(CC5CC5)c4n3)cc2)CC1 [Compound 8a, (4-((9-(Cyclopropylmethyl)-6-(phenylamino)-9H-purin-2-yl)amino)phenyl)(4-methylpiperazin-1-yl)methanone]
[1]
  IC50: 1.21 ± 0.11 µM
[2]; [12]
  IC50: 6.01 ± 0.72 µM
[3]; [13]
  IC50: 1.95 µM
[4]
  IC50: 31.4 ± 3.18 µM
[5]
  GI50: 8.91 ± 1.64 µM
[6]
  GI50: 6.64 ± 1.42 µM
[7]
  GI50: 1.24 ± 0.21 µM
[8]
  GI50: 16.6 ± 0.67 µM
[9]
  GI50: > 25 µM
other
  melting point: 164 to 165 °C

## CN1CCN(C(=O)c2ccc(Nc3nc(Nc4ccc(F)c(F)c4)c4ncn(CC5CC5)c4n3)cc2)CC1 [Compound 8c, (4-((9-(Cyclopropylmethyl)-6-((3,4-difluorophenyl)amino)-9H-purin-2-yl)amino)phenyl)(4-methylpiperazin-1-yl)methanone]
[1]
  IC50: 0.94 ± 0.22 µM
[2]; [12]
  IC50: 2.73 ± 0.17 µM
[3]; [13]
  IC50: 1.81 µM
[4]
  IC50: 14.2 ± 1.24 µM
[5]
  GI50: 6.07 ± 0.08 µM
[6]
  GI50: 2.39 ± 0.89 µM
[7]
  GI50: 1.52 ± 0.31 µM
[8]
  GI50: 14.69 ± 0.02 µM
[9]
  GI50: 20.7 ± 4.07 µM
other
  melting point: 142 to 143 °C

## CN1CCN(c2ccc(Nc3nc(Nc4ccccc4)c4ccn(CC5CC5)c4n3)cc2)CC1 [Compound 12, 7-(Cyclopropylmethyl)-N^2-(4-(4-Methylpiperazin-1-yl)Phenyl)-N^4-Phenyl-7H-pyrrolo[2,3-d]Pyrimidine-2,4-Diamine]
[1]
  IC50: 62.3 ± 12.1 µM
[2]; -log IC50 in molar concentration, Table S3, read-out: Experimental pIC50, CoMFA BTK (converted)
  IC50: 2.39 µM
[2]; [12]
  IC50: > 20 µM
[3]; -log IC50 in molar concentration, Table S3, read-out: Experimental pIC50, CoMFA FLT3 (converted)
  IC50: 1.54 µM
[3]; [13]
  IC50: > 20 µM
[4]
  IC50: 46.2 ± 1.49 µM
[5]
  GI50: 6.38 ± 1.14 µM
[6]
  GI50: 3.58 ± 0.65 µM
[7]
  GI50: 8.28 ± 2.9 µM
[8]
  GI50: 12.8 ± 0.61 µM
[9]
  GI50: 15.5 ± 1.46 µM
other
  melting point: 102.3 to 105.5 °C

## NC1CCC(Nc2nc(Nc3ccc(CN4CCOCC4)cc3)c3ncn(C4CCCC4)c3n2)CC1 (stereo not shown) [II]
[11]
  IC50: 0.002 µM
